Drawing on patent US7417054B2, “Naphthyridine compounds” (Janssen Pharmaceutica N.V., priority 2005, dated 2008), this text covers Ki for 27 compounds.

In test [1] the target is T1, human H3 receptor (Homo sapiens, UniProt Q9Y5N1).
T1 construct: expressed in transfected cells; host or cells: SK-N-MC cells
The experiment in a line: H3 receptor binding, N-[3H]-α-methylhistamine displacement on SK-N-MC cell membranes. To be noted: cloned human H3 receptor in SK-N-MC cell membranes; 0.8 nM N-[3H]-α-methylhistamine; 60 min at 25° C.

Test [2] has as its target T2, human SERT (Homo sapiens, UniProt P31645).
T2 construct: expressed in transfected cells; host or cells: HEK293
The experiment in a line: Human SERT binding, 3H-citalopram displacement on HEK293 membranes. To be noted: HEK293 membranes expressing the human SERT, rt for 1 h. Here is the method: Homogenized HEK293 (Human Embryonic Kidney) membranes expressing the human SERT were incubated with ^3H-citalopram (SERT) at rt for 1 h in 50 mM Tris, 120 mM NaCl, 5 mM KCl (pH 7.4). […] The membranes were washed and the radioactivity was counted as above.

Test [3] addresses Rat SERT (Rattus norvegicus, UniProt P31652). Nature of the test: Rat brain SERT binding, [3H]-Citalopram displacement on rat brain membranes.
Procedure: The supernatant was removed and re-centrifuged at 15,000 rpm for 30 min. […] Membranes were incubated with 0.6 nM [^3H]-Citalopram plus/minus test compounds for 60 min at 25° C. and harvested by rapid filtration over GF/C glass fiber filters (pretreated with 0.3% polyethylenimine) followed by four washes with ice-cold buffer.
Setting [4] is: read-out: Rat SERT Ki, rat brain membranes without cerebellum, 0.6 nM [3H]-Citalopram, 60 min at 25° C.
Setting [5] is: Rat SERT Ki (nM), rat brain membranes without cerebellum, 0.6 nM [3H]-Citalopram, 60 min at 25° C.

Structures can show the parent of a compound that is named as a salt. Where two headings read alike, the source gives them in different places.

T1 sequence (Q9Y5N1 whole entry): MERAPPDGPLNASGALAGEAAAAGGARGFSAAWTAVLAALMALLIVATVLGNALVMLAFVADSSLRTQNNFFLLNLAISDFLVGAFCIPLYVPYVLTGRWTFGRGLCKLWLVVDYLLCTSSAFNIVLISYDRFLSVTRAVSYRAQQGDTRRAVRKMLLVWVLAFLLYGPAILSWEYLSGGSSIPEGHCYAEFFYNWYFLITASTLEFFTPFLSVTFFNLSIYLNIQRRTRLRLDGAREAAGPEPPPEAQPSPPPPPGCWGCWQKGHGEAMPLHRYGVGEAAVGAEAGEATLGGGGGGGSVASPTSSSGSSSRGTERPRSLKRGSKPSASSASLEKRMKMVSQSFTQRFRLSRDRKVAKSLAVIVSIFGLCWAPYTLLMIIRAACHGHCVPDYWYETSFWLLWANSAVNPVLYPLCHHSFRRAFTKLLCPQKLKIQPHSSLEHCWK
T2 sequence (P31645 whole entry): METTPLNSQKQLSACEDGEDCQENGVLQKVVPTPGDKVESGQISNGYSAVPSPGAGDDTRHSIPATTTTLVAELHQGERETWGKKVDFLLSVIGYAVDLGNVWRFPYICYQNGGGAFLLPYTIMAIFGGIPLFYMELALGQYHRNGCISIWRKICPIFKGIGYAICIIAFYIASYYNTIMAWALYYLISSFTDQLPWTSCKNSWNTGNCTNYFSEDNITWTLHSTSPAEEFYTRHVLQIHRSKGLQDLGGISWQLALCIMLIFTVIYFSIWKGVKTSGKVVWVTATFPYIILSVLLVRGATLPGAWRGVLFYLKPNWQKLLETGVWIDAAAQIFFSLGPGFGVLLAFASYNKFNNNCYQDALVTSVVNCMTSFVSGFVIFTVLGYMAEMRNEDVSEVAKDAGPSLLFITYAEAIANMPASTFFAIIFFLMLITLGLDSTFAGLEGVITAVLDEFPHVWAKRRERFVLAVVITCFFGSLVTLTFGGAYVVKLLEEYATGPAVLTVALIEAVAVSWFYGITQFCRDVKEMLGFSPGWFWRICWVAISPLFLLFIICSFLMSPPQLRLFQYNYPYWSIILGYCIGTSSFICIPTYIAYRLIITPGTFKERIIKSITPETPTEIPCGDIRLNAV
Sequence of Rat SERT (P31652 whole entry): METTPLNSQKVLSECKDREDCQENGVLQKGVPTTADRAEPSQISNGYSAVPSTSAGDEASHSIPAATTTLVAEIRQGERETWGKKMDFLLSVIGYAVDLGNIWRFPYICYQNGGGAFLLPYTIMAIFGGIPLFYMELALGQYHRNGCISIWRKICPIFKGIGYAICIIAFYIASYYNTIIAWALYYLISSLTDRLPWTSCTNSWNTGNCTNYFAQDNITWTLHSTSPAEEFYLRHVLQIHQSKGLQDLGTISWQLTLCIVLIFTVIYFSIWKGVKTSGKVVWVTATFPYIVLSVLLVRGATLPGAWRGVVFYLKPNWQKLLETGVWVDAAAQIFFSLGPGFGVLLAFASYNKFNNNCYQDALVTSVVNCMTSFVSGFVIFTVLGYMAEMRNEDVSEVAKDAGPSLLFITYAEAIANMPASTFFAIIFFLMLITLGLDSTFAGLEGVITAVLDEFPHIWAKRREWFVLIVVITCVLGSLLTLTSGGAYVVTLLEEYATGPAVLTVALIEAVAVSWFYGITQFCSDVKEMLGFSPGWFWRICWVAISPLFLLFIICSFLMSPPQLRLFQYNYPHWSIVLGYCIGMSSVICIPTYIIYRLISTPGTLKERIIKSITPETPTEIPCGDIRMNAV

In general, Ki refers to the dissociation constant of the complex between target and ligand, obtained from inhibition or displacement. Take `COc1ccc(C2CN(C)Cc3cc(C#CCCN4CCCCC4)cnc32)cc1` (centres unmarked) [Example 48, 8-(4-Methoxy-phenyl)-6-methyl-3-(4-piperidin-1-yl-but-1-ynyl)-5,6,7,8-tetrahydro-[1,6]naphthyridine trifluoroacetic acid salt]: the Ki worked out at 45 nM in test [1], 2000 nM in test [2] and 1000 nM in test [3].
For the compound `COc1ccc(C2CN(C)Cc3cc(OCC4CCN(C(C)C)CC4)ncc32)cc1` (centres unmarked) [Example 40, 7-(1-Isopropyl-piperidin-4-ylmethoxy)-4-(4-methoxy-phenyl)-2-methyl-1,2,3,4-tetrahydro-[2,6]-naphthyridine], the Ki in test [1] is 13 nM; in test [2] it was 62 nM; in test [3] (setting [4]), 45 nM.
The matching figures for `COc1ccc(C2CN(C)Cc3cc(OCCCN4CCCCC4)ncc32)cc1` (centres unmarked) [Example 8, 4-(4-Methoxy-phenyl)-2-methyl-7-(3-piperidin-1-yl-propoxy)-1,2,3,4-tetrahydro-[2,6]-naphthyridine]: 12 nM, 107 nM and 34 nM.
As for `CN1Cc2cc(OCCCN3CCCCC3)ncc2C(c2cccc(Cl)c2)C1` (centres unmarked) [Example 27, 4-(3-Chloro-phenyl)-2-methyl-7-(3-piperidin-1-yl-propoxy)-1,2,3,4-tetrahydro-[2,6]-naphthyridine], the Ki in test [1] was found to be 7 nM; in test [2], 826 nM; in test [3] (setting [4]), 144 nM.
For `Clc1ccc(C2CNCc3cc(OCCCN4CCCCC4)ncc32)cc1Cl` (single isomer, unassigned; enantiomer b) [Example 46, 4-(3,4-Dichloro-phenyl)-7-(3-piperidin-1-yl-propoxy)-1,2,3,4-tetrahydro-[2,6]-naphthyridine (enantiomer B)], the Ki in test [1] is 13 nM; in test [2], 16 nM; in test [3] (setting [5]), 17 nM.
Regarding `COc1ccc(C2CN(C)Cc3cc(OCCC4CCCN4C)ncc32)cc1` (centres unmarked) [Example 10, 4-(4-Methoxy-phenyl)-2-methyl-7-[2-(1-methyl-pyrrolidin-2-yl)-ethoxy]-1,2,3,4-tetrahydro-[2,6]-naphthyridine], the values for the Ki in test [1] and in test [3] were 4 nM and 20 nM, respectively.
As for `COc1ccc(C2CN(C)Cc3cc(CCCCN4CCCCC4)cnc32)cc1` (centres unmarked) [Example 49, 8-(4-Methoxy-phenyl)-6-methyl-3-(4-piperidin-1-yl-butyl)-5,6,7,8-tetrahydro-[1,6]-naphthyridine trifluoroacetic acid salt], the inhibitory constant (Ki) was 78 nM in test [1], 2000 nM in test [2] and 623 nM in test [3].
Consider `COc1ccc(C2CNCc3cc(OCCC4CCCN4C)ncc32)cc1` (centres unmarked) [Example 9, 4-(4-Methoxy-phenyl)-7-[2-(1-methyl-pyrrolidin-2-yl)-ethoxy]-1,2,3,4-tetrahydro-[2,6]-naphthyridine], for which the Ki in test [1] is 3 nM; in test [3] (setting [5]), 43 nM.
For `FC(F)(F)Oc1ccc(C2CNCc3cc(OCCCN4CCCCC4)ncc32)cc1` (centres unmarked) [Example 44, 7-(3-Piperidin-1-yl-propoxy)-4-(4-trifluoromethoxy-phenyl)-1,2,3,4-tetrahydro-[2,6]naphthyridine], the Ki in test [1] is 18 nM; in test [2] it was 70 nM; in test [3], 74 nM.
Take `COc1ccc(C2CNCc3cc(OC4CCN(Cc5ccccc5)CC4)ncc32)cc1` (centres unmarked) [Example 22, 7-(1-Benzyl-piperidin-4-yloxy)-4-(4-methoxy-phenyl)-1,2,3,4-tetrahydro-[2,6]-naphthyridine]: the Ki in test [3] came to 87 nM.
As to `CN1Cc2cc(OCCCN3CCCCC3)ncc2C(c2ccc(Cl)c(Cl)c2)C1` (single isomer, unassigned; enantiomer a) [Example 38, 4-(3,4-Dichloro-phenyl)-2-methyl-7-(3-piperidin-1-yl-propoxy)-1,2,3,4-tetrahydro-[2,6]-naphthyridine (enantiomer A)], the Ki in test [1] was 50 nM; in test [3] (setting [5]) it was 56 nM.
Turning to `COc1cccc(C2CN(C)Cc3cc(OCCCN4CCCCC4)ncc32)c1` (centres unmarked) [Example 14, 4-(3-Methoxy-phenyl)-2-methyl-7-(3-piperidin-1-yl-propoxy)-1,2,3,4-tetrahydro-[2,6]-naphthyridine], the Ki in test [1] came to 8 nM; in test [2], 303 nM; in test [3] (setting [4]), 59 nM.
On to `CCN(CC)CCCOc1cc2c(cn1)C(c1ccc(OC)cc1)CNC2` (centres unmarked) [Example 20, Diethyl-{3-[8-(4-methoxy-phenyl)-5,6,7,8-tetrahydro-[2,6]naphthyridin-3-yloxy]-propyl}-amine], for which the results for the Ki in test [1], in test [2] and in test [3] (setting [4]) were 23 nM, 226 nM and 129 nM, respectively.
Consider `CC(C)N1CCC(COc2cc3c(cn2)C(c2ccc(Cl)c(Cl)c2)CN(C)C3)CC1` (centres unmarked) [Example 41, 4-(3,4-Dichloro-phenyl)-7-(1-isopropyl-piperidin-4-ylmethoxy)-2-methyl-1,2,3,4-tetrahydro-[2,6]naphthyridine], for which the Ki in test [1] was 13 nM; in test [2], 31 nM; in test [3] (setting [4]) it was 23 nM.
With `Clc1ccc(C2CNCc3cc(OCCCN4CCOCC4)ncc32)cc1Cl` (centres unmarked) [Example 26, 4-(3,4-Dichloro-phenyl)-7-(3-morpholin-4-yl-propoxy)-1,2,3,4-tetrahydro-[2,6]-naphthyridine], the Ki in test [1] was found to be 44 nM; in test [2], 611 nM; in test [3] (setting [5]), 64 nM.
`CN1Cc2cc(OCCCN3CCCCC3)ncc2C(c2ccc(Cl)cc2)C1` (centres unmarked) [Example 36, 4-(4-Chloro-phenyl)-2-methyl-7-(3-piperidin-1-yl-propoxy)-1,2,3,4-tetrahydro-[2,6]naphthyridine]: the values for the Ki in test [1], in test [2] and in test [3] (setting [4]) were 15 nM, 106 nM and 22 nM, respectively.
As to `COc1ccc(C2CNCc3cc(OC4CCNCC4)ncc32)cc1` (centres unmarked) [Example 42, 4-(4-Methoxy-phenyl)-7-(piperidin-4-yloxy)-1,2,3,4-tetrahydro-[2,6]naphthyridine], the affinity in test [3] corresponds to a Ki of 106 nM.
For `CN1Cc2cc(OCCCN3CCCCC3)ncc2C(c2ccccc2)C1` (centres unmarked) [Example 3, 2-Methyl-4-phenyl-7-(3-piperidin-1-yl-propoxy)-1,2,3,4-tetrahydro-[2,6]-naphthyridine], the inhibition constant (Ki) is 5 nM in test [1], 1140 nM in test [2] and 569 nM in test [3] (setting [4]).
`COc1ccc(C2CN(C)Cc3nc(OCCCN4CCCCC4)ccc32)cc1` (centres unmarked) [Example 50, 5-(4-Methoxy-phenyl)-7-methyl-2-(3-piperidin-1-yl-propoxy)-5,6,7,8-tetrahydro-[1,7]naphthyridine]: the Ki amounted to 1 nM in test [1], 7 nM in test [2] and 4 nM in test [3].
As for `CCN(CC)CCCOc1cc2c(cn1)C(c1ccc(OC)cc1)CN(C)C2` (centres unmarked) [Example 29, Diethyl-{3-[8-(4-methoxy-phenyl)-6-methyl-5,6,7,8-tetrahydro-[2,6]naphthyridin-3-yloxy]-propyl}-amine], the Ki stood at 13 nM in test [1], 66 nM in test [2] and 19 nM in test [3] (setting [4]).
`COc1ccc(C2CN(C)Cc3cc(OC4CCN(C)CC4)ncc32)cc1` (centres unmarked) [Example 43, 4-(4-Methoxy-phenyl)-2-methyl-7-(1-methyl-piperidin-4-yloxy)-1,2,3,4-tetrahydro-[2,6]naphthyridine]: the Ki in test [1] was determined as 796 nM; in test [2] it was 1020 nM; in test [3], 137 nM.
In the case of `COc1ccc(C2CN(C)Cc3cc(OCCCN4CCOCC4)ncc32)cc1` (centres unmarked) [Example 12, 4-(4-Methoxy-phenyl)-2-methyl-7-(3-morpholin-4-yl-propoxy)-1,2,3,4-tetrahydro-[2,6]-naphthyridine], the Ki in test [1] worked out at 90 nM; in test [2] it was 70 nM; in test [3] (setting [4]) it was 29 nM.
On to `COc1ccc(C2CNCc3cc(OCCCN4CCC(F)(F)CC4)ncc32)cc1` (centres unmarked) [Example 19, 7-[3-(4,4-Difluoro-piperidin-1-yl)-propoxy]-4-(4-methoxy-phenyl)-1,2,3,4-tetrahydro-[2,6]-naphthyridine], for which the Ki in test [1] was found to be 208 nM; in test [2], 51 nM; in test [3], 56 nM.
For `CN1Cc2cc(OCCCN3CCCCC3)ncc2C(c2ccc(F)c(Cl)c2)C1` (centres unmarked) [Example 35, 4-(3-Chloro-4-fluoro-phenyl)-2-methyl-7-(3-piperidin-1-yl-propoxy)-1,2,3,4-tetrahydro-[2,6]naphthyridine], in that order: 7 nM, 147 nM and 26 nM.
Consider `CN1Cc2cc(OCCCN3CCCCC3)ncc2C(c2ccc(Cl)c(Cl)c2)C1` (single isomer, unassigned; enantiomer b) [Example 39, 4-(3,4-Dichloro-phenyl)-2-methyl-7-(3-piperidin-1-yl-propoxy)-1,2,3,4-tetrahydro-[2,6]-naphthyridine (enantiomer B)], for which the Ki was found to be 42 nM in test [1] and 233 nM in test [3] (setting [5]).
For `COc1ccc(C2CN(C)Cc3cc(OCCCN4CCC(F)(F)CC4)ncc32)cc1` (centres unmarked) [Example 28, 7-[3-(4,4-Difluoro-piperidin-1-yl)-propoxy]-4-(4-methoxy-phenyl)-2-methyl-1,2,3,4-tetrahydro-[2,6]naphthyridine], in that order: 264 nM and 129 nM.
On to `Clc1ccc(C2CNCc3cc(OCCCN4CCCCC4)ncc32)cc1Cl` (single isomer, unassigned; enantiomer a) [Example 45, 4-(3,4-Dichloro-phenyl)-7-(3-piperidin-1-yl-propoxy)-1,2,3,4-tetrahydro-[2,6]-naphthyridine (enantiomer A)], for which the inhibitory constant (Ki) in test [1] turned out to be 4 nM; in test [3] it was 101 nM.
